From patent publication US20070185129A1, “ACID ADDITION SALTS OF THIENOPYRANCARBOXAMIDE DERIVATIVES” (Recordati Ireland Limited, priority 2006, published 2007)

Columns and labels:
water solubility = type: physicochemical
stability of solid form = type: physicochemical
α1L receptor = conditions: isolated rabbit aorta model system; cited from earlier work
α1b receptor = target: T1, α1b receptor (Homo sapiens, UniProt P35368); test: selectivity for α1a receptor compared to α1b receptor; type: binding
T1 sequence (P35368 1-520): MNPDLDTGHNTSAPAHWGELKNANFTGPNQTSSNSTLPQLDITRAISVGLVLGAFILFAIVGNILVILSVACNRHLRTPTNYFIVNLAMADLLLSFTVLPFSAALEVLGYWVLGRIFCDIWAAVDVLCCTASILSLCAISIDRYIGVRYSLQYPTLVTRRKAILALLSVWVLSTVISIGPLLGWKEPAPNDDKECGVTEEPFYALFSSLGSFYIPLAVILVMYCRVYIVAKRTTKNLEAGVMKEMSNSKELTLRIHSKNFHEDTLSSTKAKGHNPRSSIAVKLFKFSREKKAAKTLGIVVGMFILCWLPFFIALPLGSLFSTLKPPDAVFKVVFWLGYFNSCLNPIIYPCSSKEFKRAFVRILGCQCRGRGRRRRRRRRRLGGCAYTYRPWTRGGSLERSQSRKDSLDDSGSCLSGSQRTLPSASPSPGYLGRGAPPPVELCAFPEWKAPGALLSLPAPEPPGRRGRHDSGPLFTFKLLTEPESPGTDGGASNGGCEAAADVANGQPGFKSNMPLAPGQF

α1d receptor = target: T2, α1d receptor (Homo sapiens, UniProt P25100); test: selectivity for α1a receptor compared to α1d receptor; type: binding
T2 sequence (P25100 1-572): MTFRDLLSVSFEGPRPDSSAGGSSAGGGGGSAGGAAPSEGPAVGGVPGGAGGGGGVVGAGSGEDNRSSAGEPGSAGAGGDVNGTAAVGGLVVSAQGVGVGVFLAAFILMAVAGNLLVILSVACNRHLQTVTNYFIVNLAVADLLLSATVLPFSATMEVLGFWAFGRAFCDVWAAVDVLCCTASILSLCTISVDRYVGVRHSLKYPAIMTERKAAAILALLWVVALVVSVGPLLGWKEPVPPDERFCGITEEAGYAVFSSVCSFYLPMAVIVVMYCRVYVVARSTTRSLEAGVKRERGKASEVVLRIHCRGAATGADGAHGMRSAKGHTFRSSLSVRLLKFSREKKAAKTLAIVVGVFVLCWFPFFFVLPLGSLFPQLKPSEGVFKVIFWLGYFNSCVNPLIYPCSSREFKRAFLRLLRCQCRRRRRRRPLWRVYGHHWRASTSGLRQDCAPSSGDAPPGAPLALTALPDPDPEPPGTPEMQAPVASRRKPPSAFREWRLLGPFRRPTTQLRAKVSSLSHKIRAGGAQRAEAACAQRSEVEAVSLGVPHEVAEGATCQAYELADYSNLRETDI

[1] = target: T3, recombinant human 5-HT1A receptor (Homo sapiens, UniProt P08908); test: selectivity for α1a receptor relative to 5-HT1A receptor; type: binding
T3 sequence (P08908 1-422): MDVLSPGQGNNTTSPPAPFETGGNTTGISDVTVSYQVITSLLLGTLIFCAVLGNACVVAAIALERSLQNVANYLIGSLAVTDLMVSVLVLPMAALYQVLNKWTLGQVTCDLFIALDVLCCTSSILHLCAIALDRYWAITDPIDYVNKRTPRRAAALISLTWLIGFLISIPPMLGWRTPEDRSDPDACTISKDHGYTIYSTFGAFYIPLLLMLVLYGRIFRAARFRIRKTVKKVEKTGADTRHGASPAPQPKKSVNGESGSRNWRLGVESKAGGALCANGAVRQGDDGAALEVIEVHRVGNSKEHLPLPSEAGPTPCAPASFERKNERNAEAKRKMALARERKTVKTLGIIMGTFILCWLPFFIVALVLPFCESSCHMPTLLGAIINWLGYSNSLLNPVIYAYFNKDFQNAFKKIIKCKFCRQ

[2] = target: T4, recombinant human α1a receptor (Homo sapiens, UniProt P35348); conditions: cited from earlier work
T4 sequence (P35348 1-466): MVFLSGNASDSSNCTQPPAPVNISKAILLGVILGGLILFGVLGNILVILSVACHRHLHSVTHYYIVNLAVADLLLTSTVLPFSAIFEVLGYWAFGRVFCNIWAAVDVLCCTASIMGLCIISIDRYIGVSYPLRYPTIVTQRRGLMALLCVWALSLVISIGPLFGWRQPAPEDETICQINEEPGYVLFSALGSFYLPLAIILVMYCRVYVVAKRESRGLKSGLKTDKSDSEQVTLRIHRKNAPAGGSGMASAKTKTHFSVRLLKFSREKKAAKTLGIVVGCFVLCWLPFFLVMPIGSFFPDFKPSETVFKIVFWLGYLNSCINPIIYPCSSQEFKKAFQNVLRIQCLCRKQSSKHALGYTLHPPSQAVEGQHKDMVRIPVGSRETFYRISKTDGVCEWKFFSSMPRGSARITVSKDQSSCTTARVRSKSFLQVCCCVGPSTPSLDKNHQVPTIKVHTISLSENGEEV

solubility (water solubility; water, at 25° C.)	heat stability / stability (in words) (stability of solid form)	selectivity for α1a receptor as compared to the α1b receptor (α1b receptor)	selectivity for α1a receptor as compared to the α1d receptor (α1d receptor)	selectivity for the recombinant human α1a receptor relative to the recombinant human 5-HT1A receptor [1]	Structure (SMILES)	water solubility (in words) (water solubility)	functional antagonism of the α1L receptor (α1L receptor)	affinity for the α1a receptor [2]
100 mg/mL	–	–	–	–	COc1ccccc1N1CCN(CCCNC(=O)c2csc3c(=O)cc(C(F)(F)F)oc23)CC1.CS(=O)(=O)O [Example 2A, N-{3-[4-(2-methoxyphenyl)-1-piperazinyl]propyl}-7-oxo-5-trifluoromethyl-7H-thieno[3,2-b]pyran-3-carboxamide mesylate salt]	improved water solubility compared to the free base	–	–
–	heat instability	~40 fold	~6 fold	~45 fold	COc1ccccc1N1CCN(CCCNC(=O)c2csc3c(=O)cc(C(F)(F)F)oc23)CC1 [Example 1, N-{3-[4-(2-methoxyphenyl)-1-piperazinyl]propyl}-7-oxo-5-trifluoromethyl-7H-thieno[3,2-b]pyran-3-carboxamide]	poor water solubility	functional antagonism	high affinity
